This note sets out measurements from PMC4655872, “A quantitative assay to monitor HSV-1 ICP0 ubiquitin ligase activity in vitro” (Methods (San Diego, Calif.), 2015).

pIC50: −log10 of the molar value.

This assay concerns T1, GST-ICP0.241.
T1 construct: gene RL2; purified from bacterial extracts; assayed with His-tagged human E1 (UBA1) and UBE2D1
As to the kind of experiment: near-IR western blot of ICP0 auto-ubiquitination with methylated-ubiquitin, reconstituted E1/E2/E3. The format is biochemical, Human alphaherpesvirus 1. To be noted: non-specific divalent cation chelator, not a specific ligand; E1 and UBE2D1 present, 1 mM MgCl2, 5 mM ATP, pH 7.5, 37 °C, 5 min preincubation, 60 min reaction.

Take `O=C(O)CN(CCN(CC(=O)O)CC(=O)O)CC(=O)O` [EDTA]: the pIC50 was 3.02.

For orientation: pIC50 means the IC50 on a negative log10 scale, so that one unit is a factor of ten. A high value points to a low IC50.
